Data: ChEMBL document CHEMBL3872209, “Inhibitory activity evaluation and mechanistic studies of tetracyclic oxindole derivatives as α-glucosidase inhibitors” (Eur J Med Chem, 2016)
Active and inactive are the calls of the source. The calls are words filed in the database; no cut-off is given here.

Key:
[1] = Inhibition of Baker's yeast alpha-glucosidase using pNGP as substrate after 30 mins by spectrophotometric analysis; design: species or system Saccharomyces cerevisiae
[2] = tested on: Saccharomyces cerevisiae; test: Potency index, ratio of acarbose IC50 to compound IC50 for inhibition of Baker's yeast alpha-glucosidase
[3] = tested on: Saccharomyces cerevisiae; test: Irreversible inhibition of Baker's yeast alpha-glucosidase at 20 uM after 24 hrs by dialysis method
[4] = tested on: Saccharomyces cerevisiae; test: Binding affinity to Baker's yeast alpha-glucosidase at 5 to 50 uM after 30 mins by tryptophan fluorescence spectrophotometric method
[5] = tested on: Saccharomyces cerevisiae; test: Binding affinity to Baker's yeast alpha-glucosidase assessed as reduction in enzyme surface hydrophobicity after 30 mins by Bis-ANS dye based spectrofluorometric method
[6] = tested on: Saccharomyces cerevisiae; test: Binding affinity to Baker's yeast alpha-glucosidase after 30 mins by tryptophan fluorescence spectrophotometric method
[7] = tested on: Saccharomyces cerevisiae; test: […] inhibition of Baker's yeast alpha-glucosidase at 0.5 to 1 uM after 30 mins by Lineweaver-Burk plot method
[8] = tested on: Saccharomyces cerevisiae; test: Mixed type inhibition of Baker's yeast alpha-glucosidase at 1 to 1.5 uM using varying pNGP substrate levels preincubated for 30 mins followed by substrate addition by Lineweaver-Burk plot method

IC50 [1] [µM]	SMILES	also measured
32.8	O=C1C(=O)N(Cc2ccc(C(F)(F)F)cc2)c2ccc3c(c21)C(CC(=O)N1CCNCC1)Oc1ccccc1-3 (stereo not drawn)	
> 300	O=C1C(=O)N(Cc2ccc(C(F)(F)F)cc2)c2ccc3c(c21)C(CC(=O)N1CCOCC1)Oc1ccccc1-3 (stereo not drawn)	
51.5	Cc1cc2c(c3c1N(Cc1ccc(C(F)(F)F)cc1)C(=O)C3=O)C(CC(=O)O)Oc1ccccc1-2 (stereo not drawn)	
160	Cc1c2c(cc3c1N(Cc1ccc(C(F)(F)F)cc1)C(=O)C3=O)-c1ccccc1OC2CC(=O)O (stereo not drawn)	
> 300	CNC(=O)CC1Oc2ccccc2-c2cc3c(c(C)c21)N(C)C(=O)C3=O (stereo not drawn)	
45.3	COC(=O)CC1Nc2ccccc2-c2ccc3c(c21)C(=O)C(=O)N3Cc1ccc(OC)cc1 (stereo not drawn)	
15.7	COC(=O)CC1Oc2ccccc2-c2ccc3c(c21)C(=O)C(=O)N3Cc1ccc(C(F)(F)F)cc1 (stereo not drawn)	
180	COC(=O)CC1Oc2ccccc2-c2cc3c(cc21)N(C)C(=O)C3=O (stereo not drawn)	
4	O=C(CC1Oc2ccccc2-c2ccc3c(c21)C(=O)C(=O)N3Cc1ccc(C(F)(F)F)cc1)Nc1ccccc1 (stereo not drawn)	
5.2	Cc1c2c(cc3c1N(C)C(=O)C3=O)-c1ccccc1OC2CC(=O)Nc1ccc(-c2ccc(N)cc2)cc1 (stereo not drawn)	
162	CN(C)CCNC(=O)CC1Oc2ccccc2-c2ccc3c(c21)C(=O)C(=O)N3Cc1ccc(C(F)(F)F)cc1 (stereo not drawn)	
11.8	CNC(=O)CC1Oc2ccccc2-c2ccc3c(c21)C(=O)C(=O)N3Cc1ccc(C(F)(F)F)cc1 (stereo not drawn)	
6.2	O=C(CC1Oc2ccccc2-c2ccc3c(c21)C(=O)C(=O)N3Cc1ccc(C(F)(F)F)cc1)Nc1ccc(O)cc1 (stereo not drawn)	
67	O=C(O)CC1Oc2ccccc2-c2ccc3c(c21)C(F)(F)C(=O)N3Cc1ccc(C(F)(F)F)cc1 (stereo not drawn)	
12.1	COC(=O)CC1Oc2ccccc2-c2ccc3c(c21)C(=O)C(=O)N3Cc1ccccc1 (stereo not drawn)	
26.3	COC(=O)CC1Oc2ccccc2-c2cc3c(c(C)c21)N(Cc1ccc(C(F)(F)F)cc1)C(=O)C3=O (stereo not drawn)	
0.7	Nc1ccc(-c2ccc(NC(=O)CC3Oc4ccccc4-c4ccc5c(c43)C(=O)C(=O)N5Cc3ccc(C(F)(F)F)cc3)cc2)cc1 (stereo not drawn)	Ratio IC50 [2]: 165 to 170; inhibition [3]: Active; Activity [4]: Active; Activity [5]: Dose-dependent effect; Activity [6]: Dose-dependent effect; inhibition [7]: Active; inhibition [8]: Active
187	CN1C(=O)C(=O)c2c1ccc1c2C(CC(=O)O)Nc2ccccc2-1 (stereo not drawn)	

IC50 [1] [µM]	SMILES	also measured
5.1	COc1ccc(NC(=O)CC2Oc3ccccc3-c3ccc4c(c32)C(=O)C(=O)N4Cc2ccc(C(F)(F)F)cc2)cc1 (stereo not drawn)	
287	COC(=O)CC1Nc2ccccc2-c2ccc3c(c21)C(=O)C(=O)N3C (stereo not drawn)	
4.6	O=C(CC1Nc2ccccc2-c2ccc3c(c21)C(=O)C(=O)N3Cc1ccc(C(F)(F)F)cc1)Nc1ccccc1 (stereo not drawn)	
4.8	O=C(O)CC1Oc2ccccc2-c2ccc3c(c21)C(=O)C(=O)N3Cc1ccc(C(F)(F)F)cc1 (stereo not drawn)	
37.2	COC(=O)CC1Nc2ccccc2-c2ccc3c(c21)C(=O)C(=O)N3Cc1ccc(C(F)(F)F)cc1 (stereo not drawn)	
8.4	CN1C(=O)C(=O)c2c1ccc1c2C(CC(=O)Nc2ccc(-c3ccc(N)cc3)cc2)Nc2ccccc2-1 (stereo not drawn)	
36.1	Cc1c2c(cc3c1N(C)C(=O)C3=O)-c1ccccc1OC2CC(=O)Nc1ccccc1 (stereo not drawn)	
105	COC(=O)CC1Oc2ccccc2-c2ccc3c(c21)C(=O)C(=O)N3C (stereo not drawn)	
80	O=C(O)CC1Nc2ccccc2-c2ccc3c(c21)C(=O)C(=O)N3Cc1ccc(C(F)(F)F)cc1 (stereo not drawn)	
16	O=C(O)CC1Oc2ccccc2-c2ccc3c(c21)C(=O)C(=O)N3Cc1ccccc1 (stereo not drawn)	
> 300	Cc1c2c(cc3c1N(C)C(=O)C3=O)-c1ccccc1OC2CC(=O)O (stereo not drawn)	
226	CN1C(=O)C(=O)c2c1ccc1c2C(CC(=O)Nc2ccccc2)Nc2ccccc2-1 (stereo not drawn)	
43.9	NC(=O)CC1Oc2ccccc2-c2ccc3c(c21)C(=O)C(=O)N3Cc1ccc(C(F)(F)F)cc1 (stereo not drawn)	
47.7	O=C(O)CC1Oc2ccccc2-c2ccc3c(c21)/C(=N/O)C(=O)N3Cc1ccc(C(F)(F)F)cc1 (stereo not drawn)	
1.9	Nc1ccc(-c2ccc(NC(=O)CC3Nc4ccccc4-c4ccc5c(c43)C(=O)C(=O)N5Cc3ccc(C(F)(F)F)cc3)cc2)cc1 (stereo not drawn)	
18.5	COC(=O)CC1Oc2ccccc2-c2cc3c(c(C)c21)N(C)C(=O)C3=O (stereo not drawn)	
4.4	O=C1C(=O)N(Cc2ccc(C(F)(F)F)cc2)c2ccc3c(c21)C(CC(=O)N1CCCCC1)Oc1ccccc1-3 (stereo not drawn)	
32.3	COC(=O)CC1Oc2ccccc2-c2ccc3c(c21)C(=O)C(=O)N3Cc1ccc(OC)cc1 (stereo not drawn)	
